Test results reported in US12275731B2, “Azaindole inhibitors of wild-type and mutant forms of LRRK2” (DANA-FARBER CANCER INSTITUTE, INC., priority 2018, dated 2025).

Columns and labels:
Assay in all cases: KinomeScan profiling
Format in all cases: binding
[1] = target: CDK8 (Homo sapiens, UniProt P49336); details: CDK8, 1 μM; read-out: % control
How it was run: (§1)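 Percent-of-control values derive from RLU, calculated as (test − positive)/(negative − positive) × 100, where DMSO defines 100% and a positive control compound defines 0%. Each compound was tested at 1 μM in the 468-kinase panel; sub-35% readings indicate activity.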

[2] = target: T1, DCAMKL3 (Homo sapiens, UniProt Q9C098); details: DCAMKL3, 1 μM; read-out: % control
T1 sequence (Q9C098 1-648): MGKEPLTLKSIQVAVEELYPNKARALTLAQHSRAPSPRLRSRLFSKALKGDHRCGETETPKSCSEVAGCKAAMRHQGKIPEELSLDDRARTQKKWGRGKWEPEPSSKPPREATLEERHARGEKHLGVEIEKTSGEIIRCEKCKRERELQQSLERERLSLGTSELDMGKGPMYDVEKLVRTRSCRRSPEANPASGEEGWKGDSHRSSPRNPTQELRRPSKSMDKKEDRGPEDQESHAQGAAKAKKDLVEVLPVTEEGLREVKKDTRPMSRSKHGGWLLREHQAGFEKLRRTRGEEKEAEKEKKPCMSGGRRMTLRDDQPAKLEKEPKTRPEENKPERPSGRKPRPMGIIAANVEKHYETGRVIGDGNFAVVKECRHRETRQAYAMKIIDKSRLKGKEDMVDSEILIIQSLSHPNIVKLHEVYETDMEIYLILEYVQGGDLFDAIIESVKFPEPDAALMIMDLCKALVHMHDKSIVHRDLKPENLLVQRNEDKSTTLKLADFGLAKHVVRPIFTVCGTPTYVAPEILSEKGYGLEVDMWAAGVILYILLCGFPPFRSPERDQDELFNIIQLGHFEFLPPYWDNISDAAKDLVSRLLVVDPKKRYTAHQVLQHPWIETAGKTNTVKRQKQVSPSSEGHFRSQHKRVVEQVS
How it was run: as §1

[3] = target: ERBB3 (Homo sapiens, UniProt P21860); details: ERBB3, 1 μM; read-out: % control
Chain of ERBB3 (P21860 20-1342): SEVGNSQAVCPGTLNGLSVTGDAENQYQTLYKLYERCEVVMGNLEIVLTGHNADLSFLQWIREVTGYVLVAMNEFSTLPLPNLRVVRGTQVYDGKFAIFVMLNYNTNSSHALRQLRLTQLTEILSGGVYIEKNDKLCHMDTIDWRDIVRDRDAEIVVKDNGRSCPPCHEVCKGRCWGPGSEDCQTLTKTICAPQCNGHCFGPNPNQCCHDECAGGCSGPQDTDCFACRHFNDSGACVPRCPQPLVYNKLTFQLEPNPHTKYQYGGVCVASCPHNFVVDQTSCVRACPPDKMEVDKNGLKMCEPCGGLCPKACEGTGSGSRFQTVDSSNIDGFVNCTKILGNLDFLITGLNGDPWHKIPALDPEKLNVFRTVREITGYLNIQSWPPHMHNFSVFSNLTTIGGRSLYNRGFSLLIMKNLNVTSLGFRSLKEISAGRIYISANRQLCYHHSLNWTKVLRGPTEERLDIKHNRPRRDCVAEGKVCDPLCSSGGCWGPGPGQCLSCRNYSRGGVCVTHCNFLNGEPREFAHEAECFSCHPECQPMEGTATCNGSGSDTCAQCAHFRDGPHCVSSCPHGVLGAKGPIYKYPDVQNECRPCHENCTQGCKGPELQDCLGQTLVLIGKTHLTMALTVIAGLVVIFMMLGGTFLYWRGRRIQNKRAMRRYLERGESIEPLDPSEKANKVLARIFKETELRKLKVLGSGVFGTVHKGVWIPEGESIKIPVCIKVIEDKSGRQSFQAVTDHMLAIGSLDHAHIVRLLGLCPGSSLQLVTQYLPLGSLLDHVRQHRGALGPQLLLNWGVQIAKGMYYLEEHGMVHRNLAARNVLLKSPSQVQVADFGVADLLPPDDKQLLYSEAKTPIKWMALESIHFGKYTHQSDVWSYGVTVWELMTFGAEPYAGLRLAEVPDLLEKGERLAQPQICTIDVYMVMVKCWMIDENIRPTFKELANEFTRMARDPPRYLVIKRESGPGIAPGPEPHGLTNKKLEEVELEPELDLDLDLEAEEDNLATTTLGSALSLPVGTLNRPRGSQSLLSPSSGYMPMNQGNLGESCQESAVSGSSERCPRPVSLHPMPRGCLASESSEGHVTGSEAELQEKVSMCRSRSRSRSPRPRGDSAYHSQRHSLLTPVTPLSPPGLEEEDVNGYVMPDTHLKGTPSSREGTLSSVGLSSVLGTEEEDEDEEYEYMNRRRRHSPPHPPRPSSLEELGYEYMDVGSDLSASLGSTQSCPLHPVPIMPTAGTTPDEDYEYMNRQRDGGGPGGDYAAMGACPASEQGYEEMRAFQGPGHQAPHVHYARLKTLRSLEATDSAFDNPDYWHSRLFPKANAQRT
How it was run: as §1

[4] = target: ERN1 (Homo sapiens, UniProt O75460); details: ERN1, 1 μM; read-out: % control
Chain of ERN1 (O75460 19-977): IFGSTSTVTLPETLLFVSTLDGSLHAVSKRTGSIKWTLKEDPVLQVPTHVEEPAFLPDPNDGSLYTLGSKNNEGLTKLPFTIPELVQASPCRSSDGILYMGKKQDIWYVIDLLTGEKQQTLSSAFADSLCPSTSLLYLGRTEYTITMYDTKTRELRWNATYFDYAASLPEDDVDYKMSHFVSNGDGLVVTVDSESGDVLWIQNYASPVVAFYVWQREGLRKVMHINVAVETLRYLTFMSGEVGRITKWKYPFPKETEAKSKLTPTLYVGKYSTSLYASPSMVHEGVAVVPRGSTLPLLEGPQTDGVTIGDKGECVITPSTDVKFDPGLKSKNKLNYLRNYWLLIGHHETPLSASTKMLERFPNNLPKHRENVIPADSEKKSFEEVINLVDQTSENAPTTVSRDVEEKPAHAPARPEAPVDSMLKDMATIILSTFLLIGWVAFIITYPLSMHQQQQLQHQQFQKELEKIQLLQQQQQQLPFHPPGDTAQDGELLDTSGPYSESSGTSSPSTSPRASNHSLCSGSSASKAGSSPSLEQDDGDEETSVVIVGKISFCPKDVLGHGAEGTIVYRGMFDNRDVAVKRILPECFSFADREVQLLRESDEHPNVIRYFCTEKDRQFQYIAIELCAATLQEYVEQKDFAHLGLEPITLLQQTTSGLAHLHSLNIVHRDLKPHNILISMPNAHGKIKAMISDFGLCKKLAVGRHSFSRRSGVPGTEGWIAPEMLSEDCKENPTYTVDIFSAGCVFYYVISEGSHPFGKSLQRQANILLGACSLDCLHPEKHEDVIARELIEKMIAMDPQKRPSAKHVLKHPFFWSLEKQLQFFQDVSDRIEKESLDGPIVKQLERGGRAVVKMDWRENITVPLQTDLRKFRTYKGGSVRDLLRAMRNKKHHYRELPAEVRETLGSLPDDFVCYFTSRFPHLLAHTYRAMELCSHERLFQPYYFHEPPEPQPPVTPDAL
How it was run: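 Selectivity was assessed by binding competition at 1 μM against 468 kinases. Values below 35% of control define an interaction.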

[5] = target: HIPK2 (Homo sapiens, UniProt Q9H2X6); details: HIPK2, 1 μM; read-out: % control
How it was run: as §1

[6] = target: T2, JAK3(JH1domain-catalytic) (Homo sapiens, UniProt P52333); details: read-out: % control
T2 construct: JAK3(JH1domain-catalytic); purchased KinomeScan®
T2 sequence (P52333 822-1111 limits assumed): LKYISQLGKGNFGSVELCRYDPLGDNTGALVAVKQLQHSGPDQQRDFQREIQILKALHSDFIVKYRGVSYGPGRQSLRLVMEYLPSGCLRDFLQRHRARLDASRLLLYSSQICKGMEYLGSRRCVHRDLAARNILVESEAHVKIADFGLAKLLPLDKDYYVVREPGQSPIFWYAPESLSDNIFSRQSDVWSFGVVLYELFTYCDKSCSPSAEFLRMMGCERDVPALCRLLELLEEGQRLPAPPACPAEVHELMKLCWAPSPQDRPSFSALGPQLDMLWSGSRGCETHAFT
How it was run: as §1

[7] = target: T3, KIT(V559D, T670I) (Homo sapiens, UniProt P10721, T670I/V559D); details: read-out: % control
T3 construct: purchased KinomeScan®
T3 sequence (P10721 26-976 V559D/T670I): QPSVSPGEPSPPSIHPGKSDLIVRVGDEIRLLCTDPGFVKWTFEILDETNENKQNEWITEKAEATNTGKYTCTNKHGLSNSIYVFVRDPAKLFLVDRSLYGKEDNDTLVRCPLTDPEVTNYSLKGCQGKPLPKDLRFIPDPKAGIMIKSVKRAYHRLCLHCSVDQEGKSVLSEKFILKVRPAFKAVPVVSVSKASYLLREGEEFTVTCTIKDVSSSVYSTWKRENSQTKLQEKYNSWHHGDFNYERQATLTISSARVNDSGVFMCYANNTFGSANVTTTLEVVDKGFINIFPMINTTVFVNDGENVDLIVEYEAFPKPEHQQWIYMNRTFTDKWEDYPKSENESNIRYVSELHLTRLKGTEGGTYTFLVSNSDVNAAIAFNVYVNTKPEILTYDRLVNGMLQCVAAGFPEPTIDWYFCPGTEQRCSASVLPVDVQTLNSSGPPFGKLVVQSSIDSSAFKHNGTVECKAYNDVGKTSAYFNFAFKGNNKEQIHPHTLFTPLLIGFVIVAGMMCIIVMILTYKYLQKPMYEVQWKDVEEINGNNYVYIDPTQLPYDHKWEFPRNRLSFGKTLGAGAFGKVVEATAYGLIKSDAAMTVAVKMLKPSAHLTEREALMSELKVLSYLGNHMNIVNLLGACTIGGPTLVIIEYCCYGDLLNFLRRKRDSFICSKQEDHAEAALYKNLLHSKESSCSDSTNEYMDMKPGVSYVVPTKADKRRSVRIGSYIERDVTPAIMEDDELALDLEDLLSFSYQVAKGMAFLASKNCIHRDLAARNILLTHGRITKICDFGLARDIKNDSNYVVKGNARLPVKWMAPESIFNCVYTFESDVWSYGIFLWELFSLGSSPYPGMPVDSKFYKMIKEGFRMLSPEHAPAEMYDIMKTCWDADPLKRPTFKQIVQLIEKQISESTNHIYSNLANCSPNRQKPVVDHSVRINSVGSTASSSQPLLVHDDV
How it was run: as §1

[8] = target: MARK1 (Homo sapiens, UniProt Q9P0L2); details: MARK1, 1 μM; read-out: % control
How it was run: as §1

[9] = target: MARK2 (Homo sapiens, UniProt Q7KZI7); details: MARK2, 1 μM; read-out: % control
How it was run: as §1

[10] = target: T4, PRKX (Homo sapiens, UniProt P51817); details: read-out: % control
T4 sequence (P51817 1-358): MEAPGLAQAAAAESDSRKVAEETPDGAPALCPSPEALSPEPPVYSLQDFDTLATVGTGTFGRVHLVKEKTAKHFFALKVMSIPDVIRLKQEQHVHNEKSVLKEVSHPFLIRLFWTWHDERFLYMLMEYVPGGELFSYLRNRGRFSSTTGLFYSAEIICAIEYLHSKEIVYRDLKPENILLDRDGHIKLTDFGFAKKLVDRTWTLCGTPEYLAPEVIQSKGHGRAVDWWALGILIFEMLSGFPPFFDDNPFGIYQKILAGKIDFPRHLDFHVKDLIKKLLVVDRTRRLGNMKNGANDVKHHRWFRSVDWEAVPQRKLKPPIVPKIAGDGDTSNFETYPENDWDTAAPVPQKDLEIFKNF
How it was run: as §1

[11] = target: RAF1 (Homo sapiens, UniProt P04049); details: RAF1, 1 μM; read-out: % control
How it was run: as §1

[12] = target: ROCK2 (Homo sapiens, UniProt O75116); details: ROCK2, 1 μM; read-out: % control
Chain of ROCK2 (O75116 whole entry): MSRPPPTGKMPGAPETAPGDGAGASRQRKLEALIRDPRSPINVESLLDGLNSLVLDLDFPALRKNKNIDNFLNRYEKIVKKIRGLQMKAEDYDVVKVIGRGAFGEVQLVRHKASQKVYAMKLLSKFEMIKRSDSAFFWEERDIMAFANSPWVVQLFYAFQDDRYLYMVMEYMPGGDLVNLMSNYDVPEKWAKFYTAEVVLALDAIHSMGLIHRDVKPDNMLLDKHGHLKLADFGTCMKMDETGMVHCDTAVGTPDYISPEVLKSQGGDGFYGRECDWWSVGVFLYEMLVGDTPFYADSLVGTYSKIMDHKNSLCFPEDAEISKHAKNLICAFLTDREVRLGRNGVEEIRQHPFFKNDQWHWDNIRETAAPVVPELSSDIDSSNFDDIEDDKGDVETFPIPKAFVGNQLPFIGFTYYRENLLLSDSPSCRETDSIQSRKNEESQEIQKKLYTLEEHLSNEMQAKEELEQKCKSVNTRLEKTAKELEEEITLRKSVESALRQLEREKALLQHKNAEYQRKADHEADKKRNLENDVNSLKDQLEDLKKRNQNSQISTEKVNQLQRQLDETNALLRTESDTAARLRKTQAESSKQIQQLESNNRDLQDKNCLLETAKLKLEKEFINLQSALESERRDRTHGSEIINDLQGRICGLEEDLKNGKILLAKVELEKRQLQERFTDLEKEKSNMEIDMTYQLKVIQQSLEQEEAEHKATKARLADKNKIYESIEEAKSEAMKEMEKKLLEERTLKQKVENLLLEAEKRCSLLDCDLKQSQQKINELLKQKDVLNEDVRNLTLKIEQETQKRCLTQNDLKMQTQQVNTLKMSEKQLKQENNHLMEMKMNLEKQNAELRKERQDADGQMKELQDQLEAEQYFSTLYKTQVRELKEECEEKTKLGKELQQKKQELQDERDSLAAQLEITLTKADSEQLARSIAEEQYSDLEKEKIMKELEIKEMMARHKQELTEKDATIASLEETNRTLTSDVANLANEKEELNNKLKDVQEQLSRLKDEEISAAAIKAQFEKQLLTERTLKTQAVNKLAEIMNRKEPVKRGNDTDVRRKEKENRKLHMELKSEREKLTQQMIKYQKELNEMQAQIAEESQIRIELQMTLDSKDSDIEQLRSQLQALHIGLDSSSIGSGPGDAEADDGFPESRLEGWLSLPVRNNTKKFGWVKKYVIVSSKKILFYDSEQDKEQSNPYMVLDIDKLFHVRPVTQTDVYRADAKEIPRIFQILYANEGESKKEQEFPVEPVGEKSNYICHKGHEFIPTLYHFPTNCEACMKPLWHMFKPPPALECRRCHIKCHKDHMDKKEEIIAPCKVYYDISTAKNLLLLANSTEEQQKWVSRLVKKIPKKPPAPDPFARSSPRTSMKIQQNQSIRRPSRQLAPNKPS
How it was run: as §1

[13] = target: T5, STK39 (Homo sapiens, UniProt Q9UEW8); details: STK39, 1 μM; read-out: % control
T5 construct: purchased KinomeScan® (panel service)
How it was run: as §1

CNc1c(-c2cnn([C@H]3CCN(C(C)=O)C[C@@H]3F)c2)cnc2[nH]cc(Cl)c12 [Compound 77, 1-((3S,4S)-4-(4-(3-chloro-4-(methylamino)-1H-pyrrolo[2,3-b]pyridin-5-yl)-1H-pyrazol-1-yl)-3-fluoropiperidin-1-yl)ethan-1-one]
remaining binding at 1 µM [1]: 100% | remaining binding at 1 µM [2]: 95% | remaining binding at 1 µM [3]: 88% | remaining binding at 1 µM [4]: 56% | remaining binding at 1 µM [5]: 81% | remaining binding at 1 µM [6]: 8.2% | remaining binding at 1 µM [7]: 9.7% | remaining binding at 1 µM [8]: 71% | remaining binding at 1 µM [9]: 86% | remaining binding at 1 µM [10]: 100% | remaining binding at 1 µM [11]: 91% | remaining binding at 1 µM [12]: 8.9% | remaining binding at 1 µM [13]: 16%

CNc1c(-c2ccc(C(=O)N3CCC(N4CCOCC4)CC3)cc2)cnc2[nH]cc(Cl)c12 [Compound 96, (4-(3-chloro-4-(methylamino)-1H-pyrrolo[2,3-b]pyridin-5-yl)phenyl)(4-morpholinopiperidin-1-yl)methanone]
remaining binding at 1 µM [1]: 82% | remaining binding at 1 µM [2]: 99% | remaining binding at 1 µM [3]: 86% | remaining binding at 1 µM [4]: 73% | remaining binding at 1 µM [5]: 74% | remaining binding at 1 µM [6]: 7.8% | remaining binding at 1 µM [7]: 27% | remaining binding at 1 µM [8]: 72% | remaining binding at 1 µM [9]: 60% | remaining binding at 1 µM [10]: 100% | remaining binding at 1 µM [11]: 100% | remaining binding at 1 µM [12]: 1.4% | remaining binding at 1 µM [13]: 9.7%

O=C(c1ccc(-c2cnc3[nH]cc(Cl)c3c2NC2CCCC2)cc1)N1CCC(N2CCOCC2)CC1 [Compound 101, (4-(3-chloro-4-(cyclopentylamino)-1H-pyrrolo[2,3-b]pyridin-5-yl)phenyl)(4-morpholinopiperidin-1-yl)methanone]
remaining binding at 1 µM [1]: 59% | remaining binding at 1 µM [2]: 84% | remaining binding at 1 µM [3]: 55% | remaining binding at 1 µM [4]: 86% | remaining binding at 1 µM [5]: 100% | remaining binding at 1 µM [6]: 62% | remaining binding at 1 µM [7]: 71% | remaining binding at 1 µM [8]: 80% | remaining binding at 1 µM [9]: 68% | remaining binding at 1 µM [10]: 82% | remaining binding at 1 µM [11]: 91% | remaining binding at 1 µM [12]: 81% | remaining binding at 1 µM [13]: 80%
